Our source for the activity, Tmax and Vd values is ChEMBL document CHEMBL4184323, “Structure-Guided Design, Synthesis, and Characterization of Next-Generation Meprin β Inhibitors” (J Med Chem, 2018).

As usually defined, the Tmax is the time at which the peak concentration occurs.

One data set concerns the target T1, BMP1 (Homo sapiens, UniProt P13497).
T1 sequence (P13497 whole entry): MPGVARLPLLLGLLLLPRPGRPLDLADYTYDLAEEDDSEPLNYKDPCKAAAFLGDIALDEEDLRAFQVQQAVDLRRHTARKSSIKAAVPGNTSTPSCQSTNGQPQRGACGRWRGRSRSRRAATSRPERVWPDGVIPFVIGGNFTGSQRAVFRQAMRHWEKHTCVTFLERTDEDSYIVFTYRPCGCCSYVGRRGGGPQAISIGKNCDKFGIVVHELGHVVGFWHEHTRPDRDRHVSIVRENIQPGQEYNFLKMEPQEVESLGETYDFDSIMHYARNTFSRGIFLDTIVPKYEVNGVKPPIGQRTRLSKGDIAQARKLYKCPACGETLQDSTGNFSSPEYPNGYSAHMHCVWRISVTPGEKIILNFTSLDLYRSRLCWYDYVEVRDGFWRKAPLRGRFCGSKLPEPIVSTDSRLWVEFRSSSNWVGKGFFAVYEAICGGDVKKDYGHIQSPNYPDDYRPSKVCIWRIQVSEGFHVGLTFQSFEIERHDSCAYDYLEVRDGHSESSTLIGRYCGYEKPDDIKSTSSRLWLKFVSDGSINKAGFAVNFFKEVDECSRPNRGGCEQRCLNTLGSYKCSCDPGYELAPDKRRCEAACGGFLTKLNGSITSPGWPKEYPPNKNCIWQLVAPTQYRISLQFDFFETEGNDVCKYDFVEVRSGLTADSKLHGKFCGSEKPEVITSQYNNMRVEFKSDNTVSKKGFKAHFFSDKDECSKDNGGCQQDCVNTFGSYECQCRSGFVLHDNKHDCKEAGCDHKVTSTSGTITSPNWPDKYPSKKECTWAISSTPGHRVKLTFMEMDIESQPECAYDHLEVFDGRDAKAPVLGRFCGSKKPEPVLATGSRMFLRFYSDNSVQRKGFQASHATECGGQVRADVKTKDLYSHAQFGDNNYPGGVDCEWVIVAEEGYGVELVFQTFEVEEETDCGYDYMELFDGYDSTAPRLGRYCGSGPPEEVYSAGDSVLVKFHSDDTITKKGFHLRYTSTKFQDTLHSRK
As to the kind of experiment: Inhibition of human BMP1 expressed in Escherichia coli assessed as residual activity using Abz-YVADAPK(Dnp)G-OH as substrate at 200 uM by fluorescence assay relative to control. Particulars: probe Abz-YVADAPK(Dnp)G-OH, read-out: Activity.

A short description of data set [1]: Tmax in Sprague-Dawley rat at 5 mg/kg, po by LC-MS analysis. Particulars: in vivo. Format: ADME, organism-based.
A further data set relates to Rattus norvegicus. As to the kind of experiment: Volume of distribution in Sprague-Dawley rat at 5 mg/kg, po by LC-MS analysis. Type of data set: ADME, organism-based. Particulars: in vivo.
For the next data set, the target named is ADAM17 (Homo sapiens, UniProt P78536). As to the kind of experiment: Inhibition of human ADAM17 assessed as residual activity using Abz-LANAVRSSSR-(DapDnp)-AR-NH2 as substrate at 200 uM by fluorescence assay relative to control. The note with it: human ADAM17 enzyme, probe Abz-LANAVRSSSR-(DapDnp)-AR-NH2, read-out: Activity.
ADAM17, sequence (P78536 whole entry): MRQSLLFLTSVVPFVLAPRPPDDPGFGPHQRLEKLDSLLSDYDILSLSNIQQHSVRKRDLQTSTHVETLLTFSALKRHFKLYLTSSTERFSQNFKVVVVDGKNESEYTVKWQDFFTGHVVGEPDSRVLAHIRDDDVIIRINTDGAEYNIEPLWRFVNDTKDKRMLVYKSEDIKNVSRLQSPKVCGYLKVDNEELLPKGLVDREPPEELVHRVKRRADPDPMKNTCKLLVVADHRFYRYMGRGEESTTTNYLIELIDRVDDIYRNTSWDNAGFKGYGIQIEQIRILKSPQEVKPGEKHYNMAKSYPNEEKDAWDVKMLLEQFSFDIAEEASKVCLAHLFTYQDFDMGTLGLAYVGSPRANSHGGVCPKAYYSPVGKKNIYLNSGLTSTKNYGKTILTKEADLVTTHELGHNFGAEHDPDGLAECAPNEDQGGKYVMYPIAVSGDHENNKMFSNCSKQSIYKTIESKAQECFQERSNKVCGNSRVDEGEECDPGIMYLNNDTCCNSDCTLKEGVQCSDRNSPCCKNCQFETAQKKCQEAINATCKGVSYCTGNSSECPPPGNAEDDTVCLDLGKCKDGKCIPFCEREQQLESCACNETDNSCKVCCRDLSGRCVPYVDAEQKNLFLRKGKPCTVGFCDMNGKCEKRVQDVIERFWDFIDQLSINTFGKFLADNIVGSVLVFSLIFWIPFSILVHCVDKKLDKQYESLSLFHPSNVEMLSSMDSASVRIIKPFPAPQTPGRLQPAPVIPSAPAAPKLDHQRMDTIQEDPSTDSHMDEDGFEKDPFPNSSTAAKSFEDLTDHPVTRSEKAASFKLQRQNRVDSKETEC

Structures are written as SMILES.

For `O=C(CN(Cc1cccc(C(=O)O)c1)Cc1cccc(C(=O)O)c1)NO`, the activity at 200 µM on BMP1 is 87%; on ADAM17, 76%. For the same compound, the Tmax in data set [1] was 10.2 min. Besides, the Vd with Rattus norvegicus stood at 0.073 L.
